In the supplement of paper PMC10307832:

Columns and labels:
Assay in all cases: relative viability (nuclei count vs DMSO), 5 days (fraction); higher = more cells survive
[1] = compound: C1/C(=C\C2=CC=CS2)/C(=O)/C(=C/C3=CC=CS3)/C1 + COc1cccc2cc(-c3nc([C@H]4CC[C@H](C(=O)O)CC4)n4ncnc(N)c34)[nH]c12 [OSI-027] (partner 0.5 µM)
How it was run: (§1)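 A single step with final 0.05% Triton X-100, 1% formaldehyde and 1 ug/ml Hoechst fixed the cells and stained nuclei 5 days after treatment. Lung cancer cell lines in 1536-well plates had been treated by pin tool the day after seeding with one drug alone or a fixed anchor-drug dose plus five library-drug doses (not always all listed) in √10 steps, and nuclei were counted on 4× images. Relative viability is the ratio of nuclei in treated wells to nuclei in vehicle wells, taken as the median of duplicate plates.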

[2] = compound: C1/C(=C\C2=CC=CS2)/C(=O)/C(=C/C3=CC=CS3)/C1 + O=C(CCCCCCC(=O)Nc1ccccc1)NO [Vorinostat] (partner 1 µM)
How it was run: as §1

TPCA-1 + OSI-027 = compound: C1=CC(=CC=C1C2=CC(=C(S2)NC(=O)N)C(=O)N)F [TPCA-1] + COc1cccc2cc(-c3nc([C@H]4CC[C@H](C(=O)O)CC4)n4ncnc(N)c34)[nH]c12 [OSI-027] (partner 0.5 µM)
How it was run: as §1

Lestaurtinib + Alpelisib = compound: C[C@]12O[C@H](C[C@]1(O)CO)n1c3ccccc3c3c4c(c5c6ccccc6n2c5c31)CNC4=O [Lestaurtinib] + Cc1nc(NC(=O)N2CCC[C@H]2C(N)=O)sc1-c1ccnc(C(C)(C)C(F)(F)F)c1 [Alpelisib] (partner 2 µM)
How it was run: as §1

Row | Cell Line | relative viability ([1]; first compound 0.2 µM) | relative viability ([1]; first compound 0.6325 µM) | relative viability ([1]; first compound 2 µM) | relative viability ([1]; first compound 6.325 µM) | relative viability ([1]; first compound 20 µM) | relative viability ([2]; first compound 0.2 µM) | relative viability ([2]; first compound 0.6325 µM) | relative viability ([2]; first compound 2 µM) | relative viability ([2]; first compound 20 µM) | relative viability (TPCA-1 + OSI-027; first compound 0.04 µM) | relative viability (TPCA-1 + OSI-027; first compound 0.1265 µM) | relative viability (TPCA-1 + OSI-027; first compound 0.4 µM) | relative viability (TPCA-1 + OSI-027; first compound 1.265 µM) | relative viability (TPCA-1 + OSI-027; first compound 4 µM) | relative viability (Lestaurtinib + Alpelisib; first compound 0.005 µM) | relative viability (Lestaurtinib + Alpelisib; first compound 0.01581 µM) | relative viability (Lestaurtinib + Alpelisib; first compound 0.05 µM) | relative viability (Lestaurtinib + Alpelisib; first compound 0.1581 µM) | relative viability (Lestaurtinib + Alpelisib; first compound 0.5 µM) | relative viability ([2]; first compound 6.325 µM)
1 | NCI-H1944 | 0.464 | 0.409 | 0.464 | 0.408 | 0.425 | 0.619 | 0.535 | 0.559 | 0.528 | 0.482 | 0.398 | 0.416 | 0.368 | 0.318 | 0.82 | 0.745 | 0.61 | 0.41 | 0.383 | 
2 | LK-2 | 0.223 | 0.226 | 0.266 | 0.216 | 0.2 | 0.255 | 0.337 | 0.432 | 0.32 | 0.222 | 0.174 | 0.232 | 0.205 | 0.198 | 1.37 | 0.97 | 1.01 | 0.647 | 0.365 | 0.324
3 | HCC-15 | 0.769 | 0.684 | 0.683 | 0.548 | 0.665 | 0.876 | 0.846 | 0.842 | 0.743 | 0.831 | 0.492 | 0.677 | 0.504 | 0.262 | 1.02 | 1.06 | 0.819 | 0.583 | 0.161 | 0.772
4 | NCI-H727 | 0.716 | 0.58 | 0.975 | 0.592 | 0.582 | 1.23 | 1.23 | 1.28 | 1.12 | 0.603 | 0.43 | 0.664 | 0.369 | 0.541 | 0.627 | 0.481 | 0.554 | 0.49 | 0.155 | 
5 | HOP-62 | 0.836 | 0.73 | 0.851 | 0.771 | 0.872 | 0.733 | 0.681 | 0.646 | 0.68 | 0.872 | 0.748 | 0.96 | 0.574 | 0.716 | 1.05 | 0.919 | 1.17 | 0.775 | 0.436 | 0.51
6 | NCI-H3122 | 1.17 | 0.956 | 1 | 0.889 | 1.01 | 1.08 | 1.08 | 0.907 | 0.708 | 1.29 | 0.837 | 0.954 | 0.854 | 0.517 | 0.92 | 0.983 | 0.932 | 0.841 | 0.48 | 0.639
7 | NCI-H1395 | 0.672 | 0.614 | 0.772 | 0.597 | 0.643 | 0.668 | 0.767 | 1.03 | 0.8 | 0.745 | 0.631 | 0.738 | 0.585 | 0.592 | 1.15 | 1.14 | 0.795 | 0.813 | 0.483 | 0.744
8 | NCI-H647 | 0.624 | 0.716 | 0.67 | 0.391 | 0.684 | 0.44 | 0.539 | 0.398 | 0.774 | 0.633 | 0.573 | 0.602 | 0.55 | 0.245 | 0.972 | 0.87 | 0.267 | 0.231 | 0.14 | 0.423
9 | NCI-H650 | 0.578 | 0.465 | 0.591 | 0.53 | 0.485 | 0.432 | 0.436 | 0.419 | 0.373 | 0.533 | 0.498 | 0.617 | 0.286 | 0.374 | 1.24 | 1.04 | 0.748 | 0.49 | 0.429 | 0.413
10 | EKVX | 0.679 | 0.673 | 0.717 | 0.615 | 0.646 | 0.893 | 0.625 | 0.873 | 0.678 | 0.806 | 0.671 | 0.771 | 0.626 | 0.586 | 0.892 | 1.03 | 0.938 | 0.743 | 0.519 | 
11 | NCI-H460 | 0.743 | 0.81 | 0.747 | 0.515 | 0.605 | 0.859 | 0.724 | 0.783 | 0.635 | 0.794 | 0.642 | 0.631 | 0.584 | 0.137 | 0.477 | 0.406 | 0.222 | 0.198 | 0.0751 | 0.398
12 | LCLC-97TM1 | 0.503 | 0.605 | 0.627 | 0.428 | 0.486 | 0.845 | 0.818 | 0.757 | 0.66 | 0.584 | 0.323 | 0.486 | 0.411 | 0.283 | 0.256 | 0.189 | 0.171 | 0.138 | 0.148 | 0.631
13 | COR-L23 | 0.804 | 0.816 | 0.732 | 0.709 | 0.749 | 0.475 | 0.597 | 0.477 | 0.451 | 0.749 | 0.706 | 0.823 | 0.683 | 0.286 | 0.716 | 0.702 |  | 0.478 | 0.192 | 0.348
14 | NCI-H1355 | 0.481 | 0.42 | 0.412 | 0.335 | 0.424 | 0.664 | 0.627 | 0.705 | 0.587 | 0.466 | 0.365 | 0.414 | 0.313 | 0.234 | 0.849 | 0.885 | 0.682 | 0.392 | 0.303 | 0.598
15 | NCI-H1666 | 0.874 | 0.863 | 0.83 | 0.732 | 0.964 | 1.09 | 1.02 | 0.874 | 0.928 | 0.856 | 0.788 | 0.851 | 0.883 | 0.865 | 0.915 | 1.05 | 1.02 | 0.493 | 0.442 | 0.893
16 | EPLC-272H | 0.349 | 0.284 | 0.285 | 0.238 | 0.265 | 0.464 | 0.384 | 0.615 | 0.358 | 0.346 | 0.236 | 0.305 | 0.277 | 0.288 | 0.896 | 0.917 | 0.575 | 0.522 | 0.556 | 0.318
